Results reported in US20230257351A1, “SUBSTITUTED N-[…] HAVING P2X4 RECEPTOR ANTAGONISTIC ACTIVITY” (Bayer Aktiengesellschaft, priority 2020, published 2023).

Target: T1, human P2X4 (Homo sapiens, UniProt Q99571)
T1 construct: expressed in transfected cells
T1 sequence (Q99571 1-388): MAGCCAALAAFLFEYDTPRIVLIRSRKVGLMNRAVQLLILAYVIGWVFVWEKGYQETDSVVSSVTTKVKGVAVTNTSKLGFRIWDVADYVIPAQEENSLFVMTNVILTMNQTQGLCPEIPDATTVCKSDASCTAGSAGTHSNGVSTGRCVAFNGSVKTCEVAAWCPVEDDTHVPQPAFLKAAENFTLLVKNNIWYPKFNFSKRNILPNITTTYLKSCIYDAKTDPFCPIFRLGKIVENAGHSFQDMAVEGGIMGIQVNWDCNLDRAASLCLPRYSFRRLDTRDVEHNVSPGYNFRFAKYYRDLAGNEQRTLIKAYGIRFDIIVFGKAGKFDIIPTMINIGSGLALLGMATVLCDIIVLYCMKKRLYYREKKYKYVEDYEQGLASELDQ
Test: Human P2X4 HEK Cell FLIPR Assay
Type: cell-based
Conditions: HEK293 stably expressing human P2X4, agonist Bz-ATP 3 μM (EC80); for IC50: read-out: Human P2X4 HEK Cells (FLIPR Assay) avg IC50
Description: Compounds were tested on a HEK293 cell line stably expressing human P2X4. Cells were cultured on poly-D-lysine-coated 384-well plates at a density of 15,000 cells/well and incubated overnight at 37° C., 5% CO2. P2X4 function was assessed by measuring intracellular calcium fluxes caused by Benzoylbenzoyl-ATP (Bz-ATP) using the calcium-chelating dye Fluo8-AM (Molecular Devices) with the Fluorescent Imaging Plate Reader Tetra (FLIPR^Tetra; Molecular Devices CA). On the day of the assay, the medium was removed and the cells were incubated for 30 min at 37° C. and 5% CO2 in 30 μl of dye buffer (Hank's balanced salt solution, 10 mM HEPES, 1.8 mM CaCl2, 1 mM MgCl2, 2 mM probenecid, 5 mM D-glucose monohydrate, 5 μM Fluo8-AM, pH=7.4). Compounds diluted in probenecid buffer (Hank's balanced salt solution, 10 mM HEPES, 1.8 mM CaCl2, 1 mM MgCl2, 2 mM probenecid, 5 mM D-glucose monohydrate, pH=7.4) at ten concentrations ranging from 25 μM to 1 nM (final concentration) were dispensed and incubated for 30 min at room temperature. […] The final assay volume was 50 μl and final DMSO concentration was 0.5%.
The fluorescence intensity reflecting intracellular calcium changes was recorded before and after Bz-ATP addition, at an excitation and emission wavelengths of 470-495 nm and 515-575 nm respectively.
The compounds were tested in triplicates and fluorescence intensity raw data normalized to the agonist control and fitted to the four-parameter logistic equation:
Y=Bottom+(Top−Bottom)/(1+10^((Log IC50−X)*HillSlope))
Assay plate acceptance was based on the signal window (S/B)[…] and the reference compound pIC50 within ±3σ the mean of historic pIC50 of the compound. Failure to meet two of the three criteria determined exclusion of the plate's results.

Row | Structure (SMILES) | Human P2X4 HEK Cells (FLIPR Assay) avg Efficacy | IC50
1 | CC(=O)N(c1cccc(C(F)(F)F)c1)c1cc(NC(=O)Cc2cccc(F)c2Cl)ccn1 [Example 8, N-{4-[2-(2-chloro-3-fluorophenyl)acetamido]pyridin-2-yl}-N-[3-(trifluoromethyl)phenyl]acetamide] | 97% | 681 nM
2 | CC(=O)N(c1cc(NC(=O)Cc2ccccc2Cl)ccn1)c1ccccc1F [Example 115, N-{4-[2-(2-chlorophenyl)acetamido]pyridin-2-yl}-N-(2-fluorophenyl)acetamide] | 96% | 391 nM
3 | CC(=O)N(c1ccc(C)cc1)c1cc(NC(=O)Cc2ccc(F)cc2Cl)ccn1 [Example 44, N-{4-[2-(2-chloro-4-fluorophenyl)acetamido]pyridin-2-yl}-N-(4-methylphenyl)acetamide] | 99% | 607 nM
4 | CC(=O)N(c1cccc(Cl)c1)c1cc(NC(=O)Cc2c(Cl)cccc2Cl)ccn1 [Example 134, N-(3-chlorophenyl)-N-{4-[2-(2,6-dichlorophenyl)acetamido]pyridin-2-yl}acetamide] | 99% | 504 nM
5 | COc1cc(F)cc(N(C(C)=O)c2cc(NC(=O)Cc3cccc(F)c3Cl)ccn2)c1 [Example 160, N-{4-[2-(2-Chlor-3-fluorphenyl)acetamido]pyridin-2-yl}-N-(3-fluor-5-methoxyphenyl)acetamide] | 101% | 383 nM
6 | CC(=O)N(c1ccc(C#N)c(C(F)(F)F)c1)c1cc(NC(=O)Cc2ccccc2Cl)ccn1 [Example 10, N-{4-[2-(2-chlorophenyl)acetamido]pyridin-2-yl}-N-[4-cyano-3-(trifluoromethyl)phenyl]acetamide] | 94% | 
7 | CC(=O)N(c1ccc(C#N)c(C(F)(F)F)c1)c1cc(NC(=O)Cc2cccc(F)c2Cl)ccn1 [Example 11, N-{4-[2-(2-chloro-3-fluorophenyl)acetamido]pyridin-2-yl}-N-[4-cyano-3-(trifluoromethyl)phenyl]acetamide] | 100% | 
8 | CC(=O)N(c1cc(F)cc(Cl)c1)c1cc(NC(=O)Cc2ccc(F)cc2Cl)ccn1 [Example 137, N-(3-chloro-5-fluorophenyl)-N-{4-[2-(2-chloro-4-fluorophenyl)acetamido]pyridin-2-yl)acetamide] | 104% | 290 nM
9 | CC(=O)N(c1cc(NC(=O)Cc2ccccc2Cl)ccn1)c1ccc(F)cc1Cl [Example 150, N-(2-Chlor-4-fluorphenyl)-N-{4-[2-(2-chlorphenyl)acetamido]pyridin-2-yl}acetamide] | 102% | 297 nM
10 | CC(=O)N(c1ccc(C)cc1)c1cc(NC(=O)Cc2ccccc2Cl)ccn1 [Example 43, N-{4-[2-(2-chlorophenyl)acetamido]pyridin-2-yl}-N-(4-methylphenyl)acetamide] | 100% | 406 nM
11 | CC(=O)N(c1ccc(S(C)(=O)=O)c(F)c1)c1cc(NC(=O)Cc2cccc(F)c2Cl)ccn1 [Example 81, N-{4-[2-(2-chloro-3-fluorophenyl)acetamido]pyridin-2-yl}-N-[3-fluoro-4-(methanesulfonyl)phenyl]acetamide] | 97% | 895 nM
12 | COc1c(F)cc(N(C(C)=O)c2cc(NC(=O)Cc3cccc(F)c3Cl)ccn2)cc1F [Example 98, N-{4-[2-(2-chloro-3-fluorophenyl)acetamido]pyridin-2-yl}-N-(3,5-difluoro-4-methoxyphenyl)acetamide] | 92% | 296 nM
13 | COc1cc(N(C(C)=O)c2cc(NC(=O)Cc3cccc(F)c3Cl)ccn2)ccc1F [Example 103, N-{4-[2-(2-chloro-3-fluorophenyl)acetamido]pyridin-2-yl}-N-(4-fluoro-3-methoxyphenyl)acetamide] | 97% | 767 nM
14 | CC(=O)N(c1cccc(C(F)(F)F)c1)c1cc(NC(=O)Cc2ccccc2Cl)ccn1 [Example 6, N-{4-[2-(2-chlorophenyl)acetamido]pyridin-2-yl}-N-[3-(trifluoromethyl)phenyl]acetamide] | 97% | 689 nM
15 | CC(=O)N(c1ccc(F)cc1)c1cc(NC(=O)Cc2cccc(C(F)(F)F)c2Cl)ccn1 [Example 35, N-(4-{2-[2-chloro-3-(trifluoromethyl)phenyl]acetamido}pyridin-2-yl)-N-(4-fluorophenyl)acetamide] | 99% | 938 nM
16 | CC(=O)N(c1ccc(S(C)(=O)=O)c(Cl)c1)c1cc(NC(=O)Cc2cccc(F)c2Cl)ccn1 [Example 156, N-{4-[2-(2-Chlor-3-fluorphenyl)acetamido]pyridin-2-yl}-N-[3-chlor-4-(methylsulfonyl)phenyl]acetamide] | 96% | 512 nM

Now from value to molecule:

Row | Human P2X4 HEK Cells (FLIPR Assay) avg Efficacy | IC50 | Structure (SMILES)
17 | 99% | 761 nM | CC(=O)N(c1cc(NC(=O)Cc2c(F)cccc2Cl)ccn1)c1ccccc1C(F)F [Example 168, N-{4-[2-(2-Chlor-6-fluorphenyl)acetamido]pyridin-2-yl}-N-[2-(difluormethyl)phenyl]acetamide]
18 | 103% | 511 nM | CC(=O)N(c1cc(NC(=O)Cc2cccc(F)c2Cl)ccn1)c1ccc(C)cc1C [Example 171, N-{4-[2-(2-Chlor-3-fluorphenyl)acetamido]pyridin-2-yl}-N-(2,4-dimethylphenyl)acetamide]
19 | 100% | 700 nM | CC(=O)N(c1ccccc1)c1cc(NC(=O)Cc2ccccc2Cl)cnn1 [Example 187, N-{5-[2-(2-chlorophenyl)acetamido]pyridazin-3-yl}-N-phenylacetamide]
20 | 98% | 673 nM | CC(=O)N(c1cc(C)cc(C#N)c1)c1cc(NC(=O)Cc2c(F)cccc2Cl)ccn1 [Example 179, N-{4-[2-(2-Chlor-6-fluorphenyl)acetamido]pyridin-2-yl}-N-(3-cyan-5-methylphenyl)acetamide]
21 | 101% | 574 nM | CC(=O)N(c1ccc(C)c(Cl)c1)c1cc(NC(=O)Cc2cccc(F)c2Cl)ccn1 [Example 181, N-{4-[2-(2-Chlor-3-fluorphenyl)acetamido]pyridin-2-yl}-N-(3-chlor-4-methylphenyl)acetamide]
22 | 90% | 766 nM | CC(=O)N(c1ccc(F)cc1)c1cc(NC(=O)Cc2ccccc2Cl)cnn1 [Example 192, N-{5-[2-(2-chlorophenyl)acetamido]pyridazin-3-yl}-N-(4-fluorophenyl)acetamide]
23 | 99% | 655 nM | CC(=O)N(c1ccccc1)c1cc(NC(=O)Cc2cccc(F)c2Cl)cnn1 [Example 186, N-{5-[2-(2-chloro-3-fluorophenyl)acetamido]pyridazin-3-yl}-N-phenylacetamide]
24 | 95% | 716 nM | CC(=O)N(c1ccc(F)cc1)c1cc(NC(=O)Cc2ccc(F)cc2Cl)cnn1 [Example 190, N-{5-[2-(2-chloro-4-fluorophenyl)acetamido]pyridazin-3-yl}-N-(4-fluorophenyl)acetamide]
25 | 91% | 669 nM | CC(=O)N(c1cc(F)cc(F)c1)c1cc(NC(=O)Cc2c(F)cccc2Cl)cnn1 [Example 208, N-{5-[2-(2-chloro-6-fluorophenyl)acetamido]pyridazin-3-yl}-N-(3,5-difluorophenyl)acetamide]
26 | 100% | 665 nM | COc1cc(F)cc(N(C(C)=O)c2cc(NC(=O)Cc3ccc(F)cc3Cl)ccn2)c1 [Example 163, N-{4-[2-(2-Chlor-4-fluorphenyl)acetamido]pyridin-2-yl}-N-(3-fluor-5-methoxyphenyl)acetamide]
27 | 96% | 477 nM | CC(=O)N(c1cc(F)cc(F)c1)c1cc(NC(=O)Cc2ccc(F)cc2Cl)cnn1 [Example 207, N-{5-[2-(2-chloro-4-fluorophenyl)acetamido]pyridazin-3-yl}-N-(3,5-difluorophenyl)acetamide]
